Test results: US20250250251A1, “PIPERIDINYLPYRIDINYLCARBONITRILE DERIVATIVES AS INHIBITORS OF GLUTAMINYL-PEPTIDE CYCLOTRANSFERASE AND GLUTAMINYL-PEPTIDE CYCLOTRANSFERASE LIKE PROTEIN” (Boehringer Ingelheim International GmbH, priority 2024, published 2025)

How the values were obtained:
CACO-2 cells = assay: Assay C: permeability in CACO-2 cells; type: in vitro ADME; conditions: pairs with and without 4-fluoropiperidyl, CACO2 cells
Method: (§1) Caco-2 cells (1-2×10^5 cells/1 cm^2 area) are seeded on filter inserts (Costar transwell polycarbonate or PET filters, 0.4 μm pore size) and cultured (DMEM) for 10 to 25 days. Compounds are dissolved in appropriate solvent (like DMSO, 1-20 mM stock solutions). […] The transport solution (TL) is applied to the apical or basolateral donor side for measuring A-B or B-A permeability (3 filter replicates), respectively. Samples are collected at the start and end of experiment from the donor and at various time intervals for up to 2 hours also from the receiver side for concentration measurement by HPLC-MS/MS or scintillation counting. Sampled receiver volumes are replaced with fresh receiver solution.
(§2) Efflux ratio (ER)=permeability B−A/permeability A−B

[1] = system: SIRPα signalling induced by A549 cells; assay: Assay B: SIRPα signalling assay using A549 cells; type: cell-based; conditions: Homo sapiens, Table 4, compounds of the invention, read-out: Inhibition of SIRPα signalling induced by A549 cells: IC50
Method: Two cell types are independently used: the Raji cell line (lymphoblast-like human cell line derived from B lymphocytes from a Burkitt's lymphoma patient in 1963) and A549 cells (adenocarcinoma human alveolar basal epithelial cells).
Test compounds were dissolved in 100% DMSO and serially diluted into a white 384-well microtiter cell culture plate (PerkinElmer #60076780 in case of Raji assay; PDL-coated plates Greiner #781945 in case of A549 assay). 5000 Raji cells (ATCC #CC86) or 5000 A549 cells (ATCC #CCL-185) in Assay Complete Cell Plating reagent 30 (DiscoverX 93-0563R30B) were added per well. The assay plate was incubated for 48 h at 37° C., 95% humidity and 5% CO2. 15000 reporter cells (Jurkat PathHunter SIRPαV1, DiscoverX #93-1135C19) were added to each well, and the plate was incubated for 5 h at 37° C., 95% humidity and 5% CO2. Bioassay reagent 1 of the PathHunter Bioassay detection kit (DiscoverX 93-0001) was added to each well of the plate using a multichannel pipette followed by a 15 min incubation at room temperature. Afterwards bioassay reagent 2 was added followed by 60 min incubation at room temperature (incubation in the dark).
The analysis of the data was performed using the luminescence signal generated by beta-galactosidase in the PathHunter reporter cell line. The luminescence measurement was done using a Pherastar Multi-Mode Reader. Dose-response curves & IC50 data were calculated with 4-parameter sigmoidal dose response formula.

[2] = system: SIRPα signalling induced by Raji cells; assay: Assay B: SIRPα signalling assay using Raji cells; type: cell-based; conditions: Homo sapiens, Table 4, compounds of the invention, read-out: Inhibition of SIRPα signalling induced by Raji cells: IC50
Method: Bioassay reagent 1 of the PathHunter Bioassay detection kit (DiscoverX 93-0001) was added to each well of the plate using a multichannel pipette followed by a 15 min incubation at room temperature. Afterwards bioassay reagent 2 was added followed by 60 min incubation at room temperature (incubation in the dark).
The analysis of the data was performed using the luminescence signal generated by beta-galactosidase in the PathHunter reporter cell line. The luminescence measurement was done using a Pherastar Multi-Mode Reader.

[3] = Assay C: permeability in CACO-2 cells; type: in vitro ADME; conditions: human, pH 7.2, Table 7, compounds of the invention, CACO-2 cells; for efflux ratio: permeability B-A/permeability A-B, read-out: Efflux Ratio
Method: as §1, §2

QPCT = target: T1, QPCT (Homo sapiens, UniProt Q16769); assay: Assay A: biochemical QPCT activity assay (MALDI-TOF MS, CD47 peptide substrate); conditions: Table 2, compounds of the invention, read-out: Inhibition of QPCT: IC50
T1 construct: purchased Origine (OriGene) TP700028
Method: (§3) QPCT or QPCTL dependent conversion of N-terminal glutamine to pyroglutamate of CD47 was monitored via MALDI-TOF MS. Test compounds were dissolved in 100% DMSO and serially diluted into clear 1,536-well microtiter plates. Enzymatic reactions were set up in assay buffer containing 20 mM Tris pH 7.5, 0.1 mM TCEP, 0.01% BSA, and 0.001% Tween20. […] The plates were incubated for 10 min in a humidified incubator at 24° C. Subsequently, 2.5 μL of CD47 peptide substrate surrogate (^19[…]^33) was added to each well (final concentration: 10 μM for QPCTL/20 μM for QPCT). The plates were mixed for 30 sec at 1,000 rpm and subsequently incubated for 40 min in a humidified incubator at 24° C. […] The plates were sealed with an adhesive foil, mixed for 30 s at 1,000 rpm and stored at room temperature until preparation of the MALDI target plates. MALDI target plates were prepared as described previously. […] QPCT or QPCTL activity was monitored by calculating the ratio between product and internal standard signals followed by normalization to high (100% activity) and low (0% activity) controls. Determination of compound potencies was obtained by fitting the dose-response data to a four-parameter logistical equation.

QPCTL = target: T2, QPCTL (Homo sapiens, UniProt Q9NXS2); assay: Assay A: biochemical QPCTL activity assay (MALDI-TOF MS, CD47 peptide substrate); conditions: Table 2, compounds of the invention, read-out: Inhibition of QPCTL: IC50
T2 construct: made in house
Method: as §3

CYP3A4 mRNA = assay: Assay D: CYP induction screening assay in primary human hepatocytes; type: in vitro ADME; conditions: Table 9, compounds of the invention, 48 h
Method: Cryopreserved plateable human hepatocytes (single donor. BioIVT) were thawed and plated in Collagen-I coated 96-well-plates at a cell density of 0.07 million cells per well.
After a 6 h attachment period, the seeding medium was replaced by serum-free William's medium E supplemented with Matrigel (0.25 mg/ml) and allowed to recover overnight. 24 h post-seeding, serum-free Williams E medium containing the test compound at a final concentration of […] and a final DMSO content of 0.1% and 0.1% DMSO (solvent-treated control), respectively, was added to predefined wells. Exposure solutions were renewed after 24 h.
After 48 h of treatment in total, the effect of the test compounds on CYP3A4 mRNA expression was assessed using the QuantiGene Plex Gene Expression Assay. Hepatocytes were lysed and total RNA was extracted using the QuantiGene Sample Processing Kit according to the instructions of the manufacturer.
mRNA quantification was conducted using a customized QuantiGene Plex Panel to analyse CYP3A4 and the housekeeper genes RPL32, EIF4E2 and GUSB according to the instructions of the manufacturer and measured on a Luminex™ instrument. Signal was reported as median fluorescence intensity (MFI), which is proportional to the number of target RNA molecules present in the sample.
For calculation of CYP3A4 mRNA induction, the signal for CYP3A4 was normalized against the geometric mean of the signal obtained for the housekeeper genes for hepatocytes exposed to test compounds in relation to solvent-treated samples according to the following equation: […]

murine hepatocytes = assay: Assay E: stability in murine hepatocytes; type: in vitro ADME, mouse; conditions: Table 12, compounds of the invention, 1 μM, 5% species serum
Method: The metabolic degradation of the test compound is assayed in a murine hepatocyte suspension.
Murine hepatocytes (typically cryopreserved) are incubated in an appropriate buffer system (e.g. Dulbecco's modified eagle medium plus 3.5 μg glucagon/500 mL, 2.5 mg insulin/500 mL and 3.75 mg/500 mL hydrocortison) containing 5% species serum.
Following a (typically) 30 min preincubation in an incubator (37° C., 10% CO2) 5 μl of test compound solution (80 μM; from 2 mM in DMSO stock solution diluted 1:25 with medium) are added into 395 μl hepatocyte suspension (cell density in the range 0.25-5 Mio cells/mL, typically 1 Mio cells/mL; final concentration of test compound 1 μM, final DMSO concentration 0.05%).
The cells are incubated for six hours (incubator, orbital shaker) and samples (25 μl) are taken at 0, 0.5, 1, 2, 4 and 6 hours. Samples are transferred into acetonitrile and pelleted by centrifugation (5 min). The supernatant is transferred to a new 96-deepwell plate, evaporated under nitrogen and resuspended.
Decline of parent compound is analyzed by HPLC-MS/MS
CLint is calculated as follows CL_[…]=Dose/AUC=(C0/CD)/(AUD+clast/k)×1000/60. C0: initial concentration in the incubation [μM], CD: cell density of vital cells [10e6 cells/mL], AUD: area under the data [μM×h], clast: concentration of last data point [μM], k: slope of the regression line for parent decline [h−1].
The calculated in vitro hepatic intrinsic clearance can be scaled up to the intrinsic in vivo hepatic Clearance and used to predict hepatic in vivo blood clearance (CL) by the use of a liver model (well stirred model).
[formula] [formula] [formula] • Hepatocellularity, mouse: 120×10e6 cells/g liver • Liver factor, mouse: 55 g/kg bodyweight • Blood flow, mouse: 90 ml/(min×kg)

T2 sequence (Q9NXS2 whole entry, species assumed): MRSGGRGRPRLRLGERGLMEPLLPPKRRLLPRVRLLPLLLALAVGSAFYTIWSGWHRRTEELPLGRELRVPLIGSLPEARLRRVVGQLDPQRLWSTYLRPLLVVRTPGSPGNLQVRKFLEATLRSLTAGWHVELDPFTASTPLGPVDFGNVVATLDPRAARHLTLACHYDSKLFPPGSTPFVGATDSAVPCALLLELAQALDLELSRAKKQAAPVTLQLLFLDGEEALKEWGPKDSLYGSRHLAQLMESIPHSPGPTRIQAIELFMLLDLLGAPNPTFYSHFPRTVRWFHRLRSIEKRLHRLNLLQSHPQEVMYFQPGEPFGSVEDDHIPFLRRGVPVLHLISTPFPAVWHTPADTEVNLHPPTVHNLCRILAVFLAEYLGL
T1 sequence (Q16769 29-361): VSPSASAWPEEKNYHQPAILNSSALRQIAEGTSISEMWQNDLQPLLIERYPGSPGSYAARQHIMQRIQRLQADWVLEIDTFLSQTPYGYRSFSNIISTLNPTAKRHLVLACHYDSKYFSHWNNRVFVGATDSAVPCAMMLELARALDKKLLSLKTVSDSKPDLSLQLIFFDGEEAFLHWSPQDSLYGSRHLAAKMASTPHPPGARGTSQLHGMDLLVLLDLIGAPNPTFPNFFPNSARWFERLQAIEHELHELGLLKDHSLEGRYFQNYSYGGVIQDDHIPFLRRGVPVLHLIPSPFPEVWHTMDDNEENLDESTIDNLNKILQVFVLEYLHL

SMILES	CACO2 Perm. (CACO-2 cells)	IC50 [1]	IC50 [2]	Papp A→B [3]	efflux ratio [3]	IC50 (QPCT)	IC50 (QPCTL)	n-fold induction of CYP3A4 at 10 μM (CYP3A4 mRNA)	Mouse Hepatocyte Stability QH (murine hepatocytes)
Cn1cnnc1C1CCN(c2c(C#N)cc(C(F)(F)F)nc2-c2cnc3nn(C(C)(C)C)c(Cl)c3c2)CC1	1.0 10^−6 cm/sec								
Cn1cnnc1C1(F)CCN(c2c(C#N)cc(-c3ccc(F)cc3)nc2-c2ccnnc2)CC1 [Example 18]		82 nM	262 nM	2.3 ×10⁻⁶ cm/s	17	5 nM	4 nM	1.3 n-fold	44%
Cc1ncc(-c2cc(C#N)c(N3CCC(F)(c4nncn4C)CC3)c(-c3cnc4nn(C(F)(F)F)cc4c3)n2)o1 [Example 19]		25 nM	139 nM	8.1 ×10⁻⁶ cm/s	7.2	2 nM	2 nM	1.1 n-fold	<12%
Cn1cnnc1C1(F)CCN(c2c(C#N)cc(-c3cnc(C(F)(F)F)nc3)nc2-c2cnc3nn(C(F)(F)F)cc3c2)CC1 [Example 20]		110 nM	618 nM	4.3 ×10⁻⁶ cm/s	12.8	1 nM	2 nM	0.5 n-fold	<12%
Cn1cnnc1C1(F)CCN(c2c(C#N)cc(-c3cccnc3)nc2-c2cnc3nn(C(F)(F)F)cc3c2)CC1 [Example 21]		24 nM	78 nM	6.8 ×10⁻⁶ cm/s	11.9	2 nM	1 nM	0.7 n-fold	35%
Cc1ccc(-c2cc(C#N)c(N3CCC(F)(c4nncn4C)CC3)c(-c3cnc4nn(C(F)(F)F)cc4c3)n2)cn1 [Example 22]		17 nM	130 nM	12 ×10⁻⁶ cm/s	6.8	3 nM	1 nM	0.5 n-fold	17%
Cc1nn(C)c(C)c1-c1cc(C#N)c(N2CCC(F)(c3nncn3C)CC2)c(-c2cnc3nn(C(F)(F)F)cc3c2)n1 [Example 23]		43 nM	169 nM	4.1 ×10⁻⁶ cm/s	16.3	2 nM	1 nM	1.1 n-fold	<12%
Cn1cc(-c2cc(C#N)c(N3CCC(F)(c4nncn4C)CC3)c(-c3cnc4nn(C(F)(F)F)cc4c3)n2)cn1 [Example 24]		27 nM	73 nM	3.4 ×10⁻⁶ cm/s	17.9	3 nM	2 nM	1.1 n-fold	<12%
Cc1ncc(-c2cc(C#N)c(N3CCC(F)(c4nncn4C)CC3)c(-c3cnc4nn(C(F)(F)F)cc4c3)n2)cn1 [Example 25]		52 nM	181 nM	3.1 ×10⁻⁶ cm/s	16.8	3 nM	3 nM	0.8 n-fold	38%
Cn1cnnc1C1(F)CCN(c2c(C#N)cc(C(F)(F)F)nc2-c2cnc3nn(C(C)(C)C)c(C4CC4)c3c2)CC1 [Example 26]		11 nM	4 nM	17 ×10⁻⁶ cm/s	4.8	1 nM	1 nM	7.9 n-fold	27%
